Laboratory results published in BindingDB's records for doi:10.1016/j.ejmech.2021.113704 (Fudan University, 2021).

Assay: Agonist activity at RORgammat in mouse CD4+ T cells assessed as induction of Th17 cells differentiation by measuring increase in IL17 production measured after 4 days by intracellular staining based flow cytometry

For `CCCN(Cc1ccc(NC(=O)Cc2ccc(S(C)(=O)=O)cc2)cc1Cl)CC1CCCCC1`, which EC50 is on record?
The EC50 was 37 nM.
